Reference: ChEMBL document CHEMBL1153855, “Discovery of a new family of bis-8-hydroxyquinoline substituted benzylamines with pro-apoptotic activity in cancer cells: synthesis, structure-activity relationship, and action mechanism studies” (2009)
Each block holds one compound with its values, some of them ahead of it. Active and inactive are the calls of the source. The rule behind the calls is not given here.

Key:
[1] = Cytotoxicity against human KB-3-1 cells after 72 hrs by MTS assay; type: functional; conditions: KB 3-1, 72 h
[2] = test system: HL-60; test: Antiproliferative activity against human HL60 cells at 10 uM after 24 hrs by trypan blue exclusion assay in absence of CuCl2; type: functional, cell-based
[3] = test system: HL-60; test: Induction of apoptosis in human HL60 cells assessed as activation of caspase 3/7 at 0.1 uM; type: functional, cell-based
[4] = Inhibition of trypsin-like activity in proteasome; type: subcellular
[5] = test system: PC-3; test: Cytotoxicity against human PC3 cells; type: functional
[6] = test system: HCT-15; test: Cytotoxicity against human HCT15 cells expressing P-gp; type: functional
[7] = organism: Ovis aries; test: Inhibition of lamb brain microtubule disassembly at 4 deg C
[8] = test system: HL-60; test: Induction of apoptosis in human HL60 cells assessed as activation of caspase 8 at 1 uM; type: functional, cell-based
[9] = test system: HL-60; test: Cytotoxicity against human HL60 cells; type: functional
[10] = test system: HL-60; test: Induction of apoptosis in human HL60 cells assessed as activation of caspase 3/7; type: functional, cell-based
[11] = test system: A549; test: Cytotoxicity against human A549 cells; type: functional
[12] = test system: HL-60; test: Induction of apoptosis in human HL60 cells assessed as PARP cleavage at 10 uM after 24 hrs by Western blot; type: functional, cell-based
[13] = test system: HL-60; test: Induction of apoptosis in human HL60 cells assessed as activation of caspase 3/7 at 1 uM; type: functional, cell-based
[14] = test system: SK-OV-3; test: Cytotoxicity against human SKOV3 cells; type: functional
[15] = Cytotoxicity against human KB3 cells; type: functional
[16] = test system: MCF7; test: Cytotoxicity against human MCF7 cells; type: functional
[17] = test system: SF-268; test: Cytotoxicity against human SF268 cells; type: functional
[18] = test system: K562; test: Cytotoxicity against human K562 cells; type: functional
[19] = organism: Ovis aries; test: Inhibition of lamb brain tubulin assembly at 37 deg C
[20] = test system: HCT-116; test: Cytotoxicity against human HCT116 cells; type: functional
[21] = test system: HepG2; test: Cytotoxicity against human HepG2 cells; type: functional
[22] = test system: HL-60; test: Induction of apoptosis in human HL60 cells assessed as activation of caspase 9 at 1 uM; type: functional, cell-based
[23] = test system: MCF7; test: Cytotoxicity against multidrug-resistant human MCF7 cells expressing P-gp; type: functional
[24] = Inhibition of chymotrypsin-like activity in proteasome; type: subcellular
[25] = test system: HL-60; test: Antiproliferative activity against human HL60 cells at 10 uM after 24 hrs by trypan blue exclusion assay in presence of CuCl2; type: functional, cell-based
[26] = test system: HL-60; test: Induction of apoptosis in human HL60 cells assessed as activation of caspase 3/7 at 0.01 uM; type: functional, cell-based

Compound: Oc1ccc(CNCc2ccccc2C(F)(F)F)c2cccnc12
CC50 [1]: 0.2 µM

Compound: Oc1c(I)cc(Cl)c2cccnc12
Activity [2]: inactive

Compound: Cc1ccc([C@H](C)N(Cc2ccc(O)c3ncccc23)Cc2ccc(O)c3ncccc23)cc1
CC50 [1]: 0.041 µM

Compound: Oc1ccc(CNCc2cccc3ccccc23)c2cccnc12
CC50 [1]: > 1 µM

Compound: Cc1ccc(CNCc2ccc(O)c3ncccc23)cc1
CC50 [1]: > 10 µM

Compound: Cc1ccc([C@H](C)N(Cc2ccc(O)c3ncccc23)C(=O)OC(C)(C)C)cc1
CC50 [1]: > 1 µM

Compound: Cc1ccc([C@H](C)NCc2ccc(O)c3ncccc23)cc1
CC50 [1]: > 1 µM

Compound: Oc1ccc(CNCc2ccccc2)c2cccnc12
CC50 [1]: > 1 µM

Compound: Oc1ccc(CN(Cc2cccc3ccccc23)Cc2ccc(O)c3ncccc23)c2cccnc12
CC50 [1]: 0.005 µM

Compound: CC(C)(C)OC(=O)N(Cc1ccccc1C(F)(F)F)Cc1ccc(O)c2ncccc12
CC50 [1]: 1 µM

Activity [4]: inactive
Activity [7]: Active
Activity [19]: inactive
Activity [24]: inactive
Compound: Oc1ccc(CN(Cc2ccc(C(F)(F)F)cc2)Cc2ccc(O)c3ncccc23)c2cccnc12
Activity [3]: Active
CC50 [5]: 0.206 µM
CC50 [6]: 0.0008 µM
Activity [2]: inactive
Activity [8]: inactive
CC50 [9]: 0.0109 µM
Activity [10]: Dose-dependent effect
CC50 [11]: 0.0009 µM
CC50 [1]: 0.0013 µM
Activity [12]: inactive
Activity [13]: Active
CC50 [14]: 0.003 µM
CC50 [15]: 0.0015 µM
CC50 [16]: 0.0012 µM
CC50 [17]: 0.091 µM
CC50 [18]: 0.0052 µM
CC50 [20]: 0.001 µM
CC50 [21]: 0.0228 µM
Activity [22]: inactive
CC50 [23]: 0.0047 µM
Activity [25]: Active
Activity [26]: inactive

Compound: CC(=O)O[C@H]1C(=O)[C@@]2(C)[C@H]([C@H](OC(=O)c3ccccc3)[C@]3(O)C[C@H](OC(=O)[C@H](O)[C@@H](NC(=O)c4ccccc4)c4ccccc4)C(C)=C1C3(C)C)[C@]1(OC(C)=O)CO[C@@H]1C[C@@H]2O [PACLITAXEL]
CC50 [15]: 0.0001 µM

Compound: O=[N+]([O-])c1ccc(CN(Cc2ccc(O)c3ncccc23)Cc2ccc(O)c3ncccc23)cc1
CC50 [1]: 0.042 µM

Compound: CC(C)(C)OC(=O)N(Cc1ccc(C(F)(F)F)cc1)Cc1ccc(O)c2ncccc12
CC50 [1]: 10 µM

Compound: Oc1ccc(CNCc2ccc(C(F)(F)F)cc2)c2cccnc12
CC50 [1]: 10 µM

Compound: Oc1ccc(CN(Cc2ccccc2C(F)(F)F)Cc2ccc(O)c3ncccc23)c2cccnc12
CC50 [1]: 0.123 µM

Activity [4]: inactive
Activity [24]: inactive
Compound: Cc1ccc(CN(Cc2ccc(O)c3ncccc23)Cc2ccc(O)c3ncccc23)cc1
Activity [3]: Active
CC50 [5]: 0.343 µM
CC50 [6]: 0.006 µM
Activity [2]: inactive
Activity [8]: inactive
CC50 [9]: 0.0327 µM
Activity [10]: Dose-dependent effect
CC50 [11]: 0.0043 µM
CC50 [1]: 0.0026 µM
Activity [12]: inactive
Activity [13]: Active
CC50 [14]: 0.008 µM
CC50 [15]: 0.0085 µM
CC50 [16]: 0.0054 µM
CC50 [17]: 0.178 µM
CC50 [18]: 0.0408 µM
CC50 [20]: 0.0032 µM
CC50 [21]: 0.0521 µM
Activity [22]: inactive
CC50 [23]: 0.0373 µM
Activity [25]: Active
Activity [26]: inactive

Compound: CC(=O)O[C@@]12CO[C@@H]1C[C@H](O)[C@@]1(C)C(=O)[C@H](O)C3=C(C)[C@@H](OC(=O)[C@H](O)[C@@H](NC(=O)OC(C)(C)C)c4ccccc4)C[C@@](O)([C@@H](OC(=O)c4ccccc4)[C@H]21)C3(C)C [DOCETAXEL]
CC50 [1]: 0.00025 µM

Compound: Oc1ccc(CN(Cc2ccccc2)Cc2ccc(O)c3ncccc23)c2cccnc12
CC50 [1]: 0.015 µM
